Source: US6627647B1, “Substituted 1-(4-aminophenyl)imidazoles and their use as anti-inflammatory agents” (Boehringer Ingelheim Pharmaceuticals, Inc., priority 2000, dated 2003)

Test system: IL-2 promoter/enhancer
Experiment: IL-2 promoter assay (luciferase reporter in J.1F/C6 Jurkat cells)
Assay type: cell-based
Settings: Homo sapiens; J.1F/C6 Jurkat cell line, induction with ionomycin and PMA; read-out: IC50, inhibition of luciferase activity in IL-2 promoter assay
Text: The IL-2 promoter assay measures transcriptional activation of a luciferase reporter gene which has been placed under control of the IL-2 promoter/enhancer. All the known regulatory features of the IL-2 gene are contained within a ˜300 bp sequence immediately upstream of the open reading frame. The region −328 to +35 relative to the transcription start site of the IL-2 gene is obtained by […] of human genomic DNA and is subcloned into the promoterless luciferase reporter vector pGL2-Basic (Promega). The resulting construct, pIL2P-luc, and a vector containing a neomycin resistance gene, pcDNA/Neo (Invitrogen), are linearized and stably transfected into Jurkat cells (a human T-cell line) by electroporation.
For screening compounds, the cells are pelleted by centrifugation, washed once with PBS, resuspended in RPMI (phenol red-free) containing 5% FBS, and dispensed into 96-well, white microtiter plates (Packard) at 50,000 cells/well. The cells are pre-incubated with compounds (1 μg/ml) for 15 min prior to addition of ionomycin (1 μg/ml) and PMA (10 ng/ml) in a final volume of 100 μl. Following a 5 hr incubation at 37° C. in a humidified incubator, 100 μl of Luc-Lite lysis buffer/luciferase assay buffer (Promega) is added and luminescence measured using a Packard TopCount scintillation counter/luminometer.

IC50: 0.3 nM
SMILES: C=CC[C@@H]1/C=C(\C)C[C@H](C)C[C@H](OC)[C@H]2O[C@@](O)(C(=O)C(=O)N3CCCC[C@H]3C(=O)O[C@H](/C(C)=C/[C@@H]3CC[C@@H](O)[C@H](OC)C3)[C@H](C)[C@@H](O)CC1=O)[C@H](C)C[C@@H]2OC [FK506]
